Assay results as given in the supplement of paper PMC12463676, “Small-molecule dissolution of stress granules by redox modulation benefits ALS models” (Nature Chemical Biology, 2025).

What was measured:
[1] = compound: NC(=O)CCCCC1CCSS1 [lipoamide]; experiment: thermal stability z-score vs DMSO; higher = more thermally stabilized by treatment; settings: HeLa, lipoamide concentration 100 µM
Description: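 Cellular thermal proteome profiling in HeLa cells. Cells were treated with 100 µM lipoamide for 1 h, with or without 1 mM arsenate for a further 1 h, then heated to ten temperatures (37-66.3 °C), and soluble protein was quantified by TMT mass spectrometry relative to 0.1% DMSO controls. The thermal stability score (sum of log2 fold changes minus the abundance score) was transformed to a z-score; mean of n = 3 experiments.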

[2] = compound: O=[As]([O-])(O)O.[K+] [potassium arsenate]; experiment: as above; settings: HeLa; arsenate concentration 1 mM
Description: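 Cellular thermal proteome profiling in HeLa cells treated with 1 mM arsenate for 1 h (DMSO pretreatment), heated to ten temperatures (37-66.3 °C). Soluble protein was quantified by TMT mass spectrometry relative to DMSO controls; the thermal stability score was transformed to a z-score; mean of n = 3 experiments.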

[3] = arsenate co-treatment: 1 mM arsenate 1 h
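Also: each temperature applied for 3 min, abundance score taken as mean log2 fold change at the two lowest temperatures, z-score obtained by mean subtraction and division by SD.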

UniProt P28072, sequence (P28072 whole entry): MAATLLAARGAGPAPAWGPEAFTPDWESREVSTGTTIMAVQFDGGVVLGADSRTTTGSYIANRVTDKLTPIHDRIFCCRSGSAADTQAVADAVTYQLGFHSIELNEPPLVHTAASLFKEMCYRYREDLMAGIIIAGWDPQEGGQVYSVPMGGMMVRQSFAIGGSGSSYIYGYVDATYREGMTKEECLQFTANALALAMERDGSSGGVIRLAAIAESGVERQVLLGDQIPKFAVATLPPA
UniProt O00487, sequence (O00487 whole entry): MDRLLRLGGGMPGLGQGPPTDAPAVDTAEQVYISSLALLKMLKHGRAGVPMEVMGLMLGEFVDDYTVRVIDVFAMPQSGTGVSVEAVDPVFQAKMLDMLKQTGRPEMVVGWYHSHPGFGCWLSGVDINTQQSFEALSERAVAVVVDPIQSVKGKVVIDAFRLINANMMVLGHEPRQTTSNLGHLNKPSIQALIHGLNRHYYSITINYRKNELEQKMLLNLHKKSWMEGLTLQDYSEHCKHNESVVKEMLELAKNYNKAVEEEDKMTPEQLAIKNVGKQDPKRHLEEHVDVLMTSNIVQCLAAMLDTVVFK
UniProt Q9BT73, sequence (Q9BT73 whole entry): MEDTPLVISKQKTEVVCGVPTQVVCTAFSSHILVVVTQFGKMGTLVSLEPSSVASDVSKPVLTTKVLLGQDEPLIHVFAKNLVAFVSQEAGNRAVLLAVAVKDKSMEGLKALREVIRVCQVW
UniProt P28070, sequence (P28070 whole entry): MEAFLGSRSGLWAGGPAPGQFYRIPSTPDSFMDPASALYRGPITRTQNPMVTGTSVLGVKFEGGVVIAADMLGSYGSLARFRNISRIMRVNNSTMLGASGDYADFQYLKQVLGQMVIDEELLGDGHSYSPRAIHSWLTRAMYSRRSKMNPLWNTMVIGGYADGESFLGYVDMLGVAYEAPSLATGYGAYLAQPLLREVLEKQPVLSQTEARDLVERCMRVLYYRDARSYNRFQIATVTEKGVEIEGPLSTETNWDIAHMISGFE
UniProt Q14997, sequence (Q14997 whole entry): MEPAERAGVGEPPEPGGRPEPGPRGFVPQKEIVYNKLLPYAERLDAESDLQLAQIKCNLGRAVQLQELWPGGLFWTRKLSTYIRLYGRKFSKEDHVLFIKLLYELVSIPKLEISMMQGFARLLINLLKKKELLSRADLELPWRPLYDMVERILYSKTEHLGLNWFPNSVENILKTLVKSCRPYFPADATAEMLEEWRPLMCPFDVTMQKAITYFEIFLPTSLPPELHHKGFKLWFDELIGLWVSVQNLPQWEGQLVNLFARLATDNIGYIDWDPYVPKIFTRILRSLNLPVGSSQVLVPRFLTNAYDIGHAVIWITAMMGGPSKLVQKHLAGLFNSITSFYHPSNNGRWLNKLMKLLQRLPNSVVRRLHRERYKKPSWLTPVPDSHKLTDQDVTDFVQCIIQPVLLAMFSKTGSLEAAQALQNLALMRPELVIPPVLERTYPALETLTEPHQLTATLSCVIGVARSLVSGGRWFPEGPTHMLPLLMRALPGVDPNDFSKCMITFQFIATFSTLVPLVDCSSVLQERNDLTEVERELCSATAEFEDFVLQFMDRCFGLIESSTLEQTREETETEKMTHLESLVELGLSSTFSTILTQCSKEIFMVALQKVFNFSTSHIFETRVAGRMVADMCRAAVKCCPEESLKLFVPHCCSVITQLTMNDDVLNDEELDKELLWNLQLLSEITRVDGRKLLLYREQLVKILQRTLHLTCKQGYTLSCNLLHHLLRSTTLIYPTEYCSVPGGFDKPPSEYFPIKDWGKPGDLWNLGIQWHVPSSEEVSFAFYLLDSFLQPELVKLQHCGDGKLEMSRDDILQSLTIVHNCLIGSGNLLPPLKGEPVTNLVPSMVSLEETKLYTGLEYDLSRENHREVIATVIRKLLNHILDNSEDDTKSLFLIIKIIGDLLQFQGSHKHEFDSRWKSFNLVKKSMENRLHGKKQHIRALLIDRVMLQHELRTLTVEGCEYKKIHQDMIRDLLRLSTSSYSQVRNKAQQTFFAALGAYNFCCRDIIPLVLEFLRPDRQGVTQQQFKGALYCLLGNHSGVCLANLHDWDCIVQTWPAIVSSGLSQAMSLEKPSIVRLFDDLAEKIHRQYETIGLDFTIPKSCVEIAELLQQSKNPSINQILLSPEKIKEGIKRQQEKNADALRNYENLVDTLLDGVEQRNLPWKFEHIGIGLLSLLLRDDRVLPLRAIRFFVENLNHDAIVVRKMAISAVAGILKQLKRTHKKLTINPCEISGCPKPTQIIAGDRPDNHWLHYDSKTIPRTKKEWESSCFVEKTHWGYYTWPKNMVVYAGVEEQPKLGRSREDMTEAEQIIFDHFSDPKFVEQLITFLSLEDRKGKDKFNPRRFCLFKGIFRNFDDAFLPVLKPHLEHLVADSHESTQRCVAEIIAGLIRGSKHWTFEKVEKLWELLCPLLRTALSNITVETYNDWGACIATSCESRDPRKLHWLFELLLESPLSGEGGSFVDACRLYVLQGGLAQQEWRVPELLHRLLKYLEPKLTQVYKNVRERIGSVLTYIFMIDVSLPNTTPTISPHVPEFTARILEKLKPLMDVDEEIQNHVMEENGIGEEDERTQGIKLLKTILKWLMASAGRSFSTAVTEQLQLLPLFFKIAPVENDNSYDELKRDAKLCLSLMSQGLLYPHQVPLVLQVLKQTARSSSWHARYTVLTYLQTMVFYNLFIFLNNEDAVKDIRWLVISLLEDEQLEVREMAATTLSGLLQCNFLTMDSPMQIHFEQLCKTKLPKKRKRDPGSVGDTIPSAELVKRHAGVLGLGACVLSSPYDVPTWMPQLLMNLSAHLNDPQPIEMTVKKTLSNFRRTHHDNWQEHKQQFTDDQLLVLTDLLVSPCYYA
UniProt P55036, sequence (P55036 whole entry): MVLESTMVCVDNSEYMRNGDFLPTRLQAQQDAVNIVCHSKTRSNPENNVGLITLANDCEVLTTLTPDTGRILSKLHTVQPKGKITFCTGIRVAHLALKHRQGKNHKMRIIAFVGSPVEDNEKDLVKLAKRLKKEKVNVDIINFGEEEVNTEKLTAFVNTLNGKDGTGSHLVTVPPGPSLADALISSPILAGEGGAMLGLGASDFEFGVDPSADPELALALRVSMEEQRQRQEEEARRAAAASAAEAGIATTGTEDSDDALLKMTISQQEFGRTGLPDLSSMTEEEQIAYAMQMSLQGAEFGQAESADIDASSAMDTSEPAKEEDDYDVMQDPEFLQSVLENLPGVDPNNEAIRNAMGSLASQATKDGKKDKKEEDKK
UniProt O00232, sequence (O00232 whole entry): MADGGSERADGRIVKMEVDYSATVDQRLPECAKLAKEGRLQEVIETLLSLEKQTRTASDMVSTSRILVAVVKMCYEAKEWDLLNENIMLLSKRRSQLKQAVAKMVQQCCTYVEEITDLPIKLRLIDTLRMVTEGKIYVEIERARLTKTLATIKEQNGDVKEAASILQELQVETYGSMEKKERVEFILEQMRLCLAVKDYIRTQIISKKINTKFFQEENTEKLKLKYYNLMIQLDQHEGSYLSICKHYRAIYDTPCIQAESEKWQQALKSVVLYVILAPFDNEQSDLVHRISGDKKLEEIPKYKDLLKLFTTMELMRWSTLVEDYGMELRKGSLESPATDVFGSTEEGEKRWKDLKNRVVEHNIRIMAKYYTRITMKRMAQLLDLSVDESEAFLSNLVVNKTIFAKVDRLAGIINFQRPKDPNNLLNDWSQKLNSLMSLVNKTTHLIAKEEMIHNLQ
UniProt P78330, sequence (P78330 whole entry): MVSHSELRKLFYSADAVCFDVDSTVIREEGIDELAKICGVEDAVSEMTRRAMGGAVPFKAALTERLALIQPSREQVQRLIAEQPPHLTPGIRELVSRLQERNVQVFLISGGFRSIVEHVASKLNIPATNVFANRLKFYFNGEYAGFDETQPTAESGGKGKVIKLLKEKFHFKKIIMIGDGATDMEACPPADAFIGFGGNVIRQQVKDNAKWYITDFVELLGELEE
UniProt Q9UNM6, sequence (Q9UNM6 whole entry): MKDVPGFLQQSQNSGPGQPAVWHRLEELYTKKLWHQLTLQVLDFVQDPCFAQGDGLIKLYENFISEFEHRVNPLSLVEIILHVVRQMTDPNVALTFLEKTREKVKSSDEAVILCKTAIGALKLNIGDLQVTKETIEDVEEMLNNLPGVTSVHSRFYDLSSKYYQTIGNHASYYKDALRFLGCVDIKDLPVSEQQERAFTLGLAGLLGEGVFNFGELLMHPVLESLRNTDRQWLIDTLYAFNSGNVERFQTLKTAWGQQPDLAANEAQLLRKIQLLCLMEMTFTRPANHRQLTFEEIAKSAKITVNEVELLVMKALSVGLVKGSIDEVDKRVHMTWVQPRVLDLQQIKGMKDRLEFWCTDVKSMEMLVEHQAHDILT
UniProt Q5JS54, sequence (Q5JS54 whole entry): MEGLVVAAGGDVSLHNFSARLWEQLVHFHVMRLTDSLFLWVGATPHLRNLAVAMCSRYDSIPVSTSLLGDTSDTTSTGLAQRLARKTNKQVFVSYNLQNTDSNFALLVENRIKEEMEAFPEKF
UniProt P62333, sequence (P62333 whole entry): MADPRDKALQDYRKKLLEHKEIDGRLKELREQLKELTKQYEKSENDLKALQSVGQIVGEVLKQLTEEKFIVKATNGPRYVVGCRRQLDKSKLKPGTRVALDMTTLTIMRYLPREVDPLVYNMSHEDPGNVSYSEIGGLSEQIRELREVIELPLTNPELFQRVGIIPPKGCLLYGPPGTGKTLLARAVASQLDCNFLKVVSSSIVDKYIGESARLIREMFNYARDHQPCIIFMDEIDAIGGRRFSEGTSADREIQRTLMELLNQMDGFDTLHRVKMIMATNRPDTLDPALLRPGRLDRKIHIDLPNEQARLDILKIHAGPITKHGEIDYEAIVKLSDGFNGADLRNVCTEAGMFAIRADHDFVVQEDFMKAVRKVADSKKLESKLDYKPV
UniProt O00233, sequence (O00233 whole entry): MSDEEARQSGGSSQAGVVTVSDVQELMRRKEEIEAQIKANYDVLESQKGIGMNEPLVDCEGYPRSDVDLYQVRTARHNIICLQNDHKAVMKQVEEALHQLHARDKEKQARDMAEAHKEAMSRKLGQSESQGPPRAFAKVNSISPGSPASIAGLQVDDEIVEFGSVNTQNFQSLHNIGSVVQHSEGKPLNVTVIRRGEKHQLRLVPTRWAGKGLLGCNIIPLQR

Row | Target | thermal stability z-score [1, 3] | thermal stability z-score ([1]; arsenate co-treatment: none) | thermal stability z-score [2]
1 | PSMB4 (UniProt P28070) | 0.411 | 0.72 | 0.545
2 | PSMB5 (UniProt P28074) | 0.395 | 0.222 | 0.113
3 | PSMB6 (UniProt P28072) | 0.174 | 0.262 | -0.414
4 | PSMB7 (UniProt Q99436) | 1.04 | 0.99 | 0.481
5 | PSMC1 (UniProt P62191) | -0.269 | -0.208 | -0.724
6 | PSMC2 (UniProt P35998) | -0.293 | -0.165 | -0.134
7 | PSMC3 (UniProt P17980) | -0.262 | -0.0444 | -0.44
8 | PSMC4 (UniProt P43686) | -0.725 | -0.18 | -0.369
9 | PSMC5 (UniProt P62195) | -0.299 | -0.397 | -0.667
10 | PSMC6 (UniProt P62333) | 0.467 | 0.219 | -0.23
11 | PSMD1 (UniProt Q99460) | 0.651 | 0.343 | 0.245
12 | PSMD2 (UniProt Q13200) | -0.29 | -0.343 | -0.333
13 | PSMD3 (UniProt O43242) | 0.084 | 0.0492 | 0.115
14 | PSMD4 (UniProt P55036) | 0.377 | 0.242 | 0.383
15 | PSMD5 (UniProt Q16401) | 0.166 | 0.024 | 0.282
16 | PSMD6 (UniProt Q15008) | -0.22 | 0.0409 | -0.212
17 | PSMD7 (UniProt P51665) | -0.802 | -0.0777 | -0.475
18 | PSMD8 (UniProt P48556) | 0.814 | 0.532 | -0.197

Row | Target | thermal stability z-score [1, 3] | thermal stability z-score ([1]; arsenate co-treatment: none) | thermal stability z-score [2]
19 | PSMD9 (UniProt O00233) | -0.33 | 0.295 | -0.281
20 | PSMD10 (UniProt O75832) | -0.817 | 0.0147 | -0.327
21 | PSMD11 (UniProt O00231) | -0.641 | -0.384 | -0.694
22 | PSMD12 (UniProt O00232) | -0.0164 | 0.0811 | -0.133
23 | PSMD13 (UniProt Q9UNM6) | -0.244 | 0.13 | -0.0407
24 | PSMD14 (UniProt O00487) | 0.501 | 0.524 | -0.0143
25 | PSME1 (UniProt Q06323) | -0.372 | -0.217 | 0.405
26 | PSME2 (UniProt Q9UL46) | 0.493 | 0.0915 | 0.951
27 | PSME3 (UniProt P61289) | 0.957 | 0.849 | 0.504
28 | PSME4 (UniProt Q14997) | -0.196 | -0.198 | -0.412
29 | PSMF1 (UniProt Q92530) | -0.319 | -0.0828 | -0.0444
30 | PSMG1 (UniProt O95456) | 1.07 | 0.507 | 4.18
31 | PSMG2 (UniProt Q969U7) | 0.926 | 0.248 | 2.01
32 | PSMG3 (UniProt Q9BT73) | 0.436 | -0.0166 | 0.28
33 | PSMG4 (UniProt Q5JS54) | -1.42 | -1.53 | -1.38
34 | PSPC1 (UniProt Q8WXF1) | -0.0313 | 0.551 | 0.449
35 | PSPH (UniProt P78330) | 0.359 | 0.393 | 0.056
